These results are taken from PMC6152192, “Novel Methylselenoesters as Antiproliferative Agents” (Molecules : A Journal of Synthetic Chemistry and Natural …, 2017).

Read-outs that look alike come from different tables or passages of the source.

The nature of data set [1]: Methylselenol (CH3SeH) release by hydrolysis, quantified with DTNB (Ellman's reagent). Conditions: 100 μM compound, 100 μM DTNB, phosphate buffer pH 8, 24 h. The format is physicochemical. From the text: The new compounds were designed as CH3SeH precursors. The chemical features of the selenoester functional group facilitate a nucleophilic attack (i.e., with water) which would deliver the CH3SeH residue. In order to verify if CH3SeH could be released from the molecules by hydrolysis and if the rate differed among the compounds, the reaction of CH3SeH with 5,5′-dithiobis(2-nitrobenzoic acid) (DTNB or Ellman’s reagent) in aqueous environment was monitored. Briefly, when the disulfide bridge of DTNB reacts with thiols or selenols, 2-nitro-5-thiobenzoate (TNB^2−) is released and the mixed disulfide or selenylsulfide is formed. Each released CH3SeH produces one yellow TNB^2− species, whose absorbance can be quantified at 412 nm (Figure 2A).
A stock solution of the compounds was prepared in anhydrous DMSO (10 mM). The compounds were placed in a 96-well plate in a final concentration of 100 μM. Reaction started after adding 200 μL of an aqueous 100 mM Na2HPO4 buffer (1 mM EDTA, pH = 8), containing 100 μM of DTNB from a freshly prepared 10 mM ethanolic stock, which were added just before starting the reaction. The DTNB concentration was quantified with a cysteine standard curve ([…]). Blanks for the compounds in the absence of DTNB were also included as well as a blank to measure the slow but spontaneous hydrolysis of DTNB, which was further subtracted from all the values. Absorbance was read at 412 nm in a FLUOstar Omega microplate reader (BMG LabTech, Ortenberg, Germany). Results represent means of triplicate values ± SD.
Figure 2 CH3SeH release rates are dependent on the chemical features of the molecule. Released CH3SeH was quantified through reaction with Ellman’s reagent (DTNB). (A) Proposed reaction between CH3SeH and DTNB; (B) Quantification of TNB^2− at different times. The compounds were tested at 100 μM in 200 μL of 100 mM phosphate buffer (1 mM EDTA, pH = 8). DTNB concentration was also 100 μM. Absorbance was followed at 412 nm over 72 h. A cysteine standard curve (7.5–150 μM) was used to calculate the concentration of TNB^2− over time. Compounds showing less than 15% hydrolysis at 72 h are not included, except for compound 5 as example. Error bars indicate SD of triplicates.

Data set [2] deals with PC-3 (prostate adenocarcinoma). The data set is described as follows: MTT viability assay, PC-3. The format is cell-based. Here is the method:
(§1) The novel compounds were tested against a panel of different cancer lines: PC-3 (prostate adenocarcinoma), MCF7 (mammary adenocarcinoma), HTB-54 (lung carcinoma), K-562 (chronic myelogenous leukemia) and HT-29 (colorectal adenocarcinoma). Two non-malignant cell lines, BEAS-2B (bronchial epithelial) and 184B5 (mammary epithelial) were also included to evaluate the toxicity of the novel synthesized compounds. The antiproliferative activity was measured with the [3-(4,5-dimethylthiazol-2-yl)-2,5-diphenyltetrazolium bromide] (MTT) assay after 72 h treatment. Six concentrations ranging from 0.1 to 100 μM were tested. MSA is largely known as the main CH3SeH putative precursor and was therefore included as positive control. The following parameters were calculated: GI50 (concentration which reduces the growth by 50%), TGI (concentration completely inhibiting growth) and LC50 (concentration that kills 50% of the cells).
(§2) All cells were purchased from the American Type Culture Collection (ATCC, Barcelona, Spain). HT-29 (colorectal adenocarcinoma), HTB-54 (grade III lung carcinoma), MCF7 (mammary adenocarcinoma), PC-3 (grade IV prostate adenocarcinoma) and K-562 (chronic myelogenous leukemia) were cultured in RPMI (Gibco, Madrid, Spain), 10% FBS (Gibco), 100 units/mL penicillin and 100 μg/mL streptomycin (Gibco). BEAS-2B cell line (normal epithelial lung) was cultured in DMEM (Gibco), 10% FBS, 100 units/mL penicillin and 100 μg/mL streptomycin. 184B5 (normal mammary gland) cell line was cultured in DMEM:F12 supplemented with 5% FBS, 1 × ITS (Lonza, Barcelona, Spain), 100 nM hydrocortisone (Sigma-Aldrich), 2 mM sodium pyruvate (Lonza), 20 ng/mL EGF (Sigma-Aldrich), 0.3 nM trans-retinoic acid (Sigma-Aldrich), 100 units/mL penicillin and 100 µg/mL streptomycin. Cells were cultured at 37 °C under 5% CO2.
(§3) Cell viability after treatment was assessed by the well-known 3-(4,5-dimethyl-thiazol-2-yl)-2,5-diphenyltetrazolium bromide (MTT, Sigma-Aldrich) assay. Briefly, 10,000 cells were seeded in 96-well plates, treated and incubated for 72 h. Dilutions of the compounds in cell medium were freshly prepared from a 0.01 M stock in DMSO. After treatment, 50 μL of MTT solution in PBS (2 mg/mL) were added and cells were incubated for 4 h. Medium was removed and 150 μL of DMSO was added to dissolve the formed formazan crystals. Absorbance was read at 550 nm in a microplate absorbance reader (Sunrise, Tecan, Männedorf, Switzerland).
Background: Tetrazolium assays rely on reduction of a dye to a coloured formazan, in cell work by metabolically active cells.

The test system of data set [3] is MCF7 (mammary adenocarcinoma). The data set is described as follows: MTT viability assay, MCF7. It counts as cell-based. As to conditions: MCF7, 72 h. How it is done: as §1, §2, §3
The nature of data set [4]: MTT viability assay, 184B5. The format is cell-based. As to conditions: human. How it is done:
as §1, §2, §3

Data set [5] relates to 184B5 (non-malignant mammary epithelium). The experiment in a line: MTT viability assay, 184B5. The format is cell-based. Conditions: 184B5 non-malignant, 72 h, MTT. Here is the method:
as §1, §2, §3

Data set [6] concerns K-562 (chronic myelogenous leukemia). The experiment in a line: MTT viability assay, K-562. The format is cell-based. Here is the method:
as §1, §2, §3

The subject of data set [7] is HT-29 (colorectal adenocarcinoma). The experiment in a line: MTT viability assay, HT-29. The format is cell-based. As to conditions: HT-29, 72 h. Here is the method: as §1, §2, §3
For data set [8], the system named is HTB-54 (lung carcinoma). The experiment in a line: MTT viability assay, HTB-54. The format is cell-based. As to conditions: HTB-54, 72 h. Here is the method:
as §1, §2, §3

Data set [9] can be described thus: MTT viability assay, BEAS-2B. It counts as cell-based. Conditions: human. How it is done:
as §1, §2, §3

In data set [10] the test system is BEAS-2B (non-malignant bronchial epithelial). The experiment in a line: MTT viability assay, BEAS-2B. The format is cell-based. Conditions: BEAS-2B non-malignant, 72 h, MTT. Here is the method:
as §1, §2, §3

The test system of data set [11] is thioredoxin reductase (TrxR1). The experiment in a line: Thioredoxin reductase activity assay (NADPH consumption). As to conditions: 100 nM TrxR1, 227 μM NADPH, TE buffer pH 8, 45 min. The format is biochemical. Here is the method:
The assay was performed as previously described, but in a final volume of 200 μL in a 96-well plate. Reaction started after addition of 133 μL of TE buffer (20 mM Tris, 2 mM EDTA, pH = 8), 0.227 mM NADPH (freshly prepared) to different concentrations of compounds solved in DMSO and TrxR1 (final concentration 100 nM). NADPH consumption was followed measuring absorbance decrease at 340 nm in a VersaMax microplate reader (Molecular Devices, Sunnyvale, CA, USA) over 45 min. A background sample with DMSO without the compounds was included and subtracted from the values.
(§4) Figure 7 Compounds 5 and 15 are substrates for thioredoxin reductase but not for the glutathione-glutaredoxin system. (A) NADPH consumption indicating reduction of compounds 5, 15 or MSA as control by thioredoxin reductase. The reaction mixture contained 100 nM TrxR1, 227 μM NADPH and the corresponding amount of compound in TE buffer (20 mM Tris, 2 mM EDTA pH = 8); (B) NADPH consumption indicating reduction of MSA by glutathione in the presence or absence of glutaredoxin. The reaction mixture contained the corresponding amount of compound, 0.1 M Tris, 2 mM EDTA pH = 8, 0.1 mg/mL BSA, 1 mM GSH, 200 μM NADPH, 0.008 OD/mL yeast GR and 1 μM hGrx1 when required. Only results for MSA are shown, as compounds 5 and 15 were not reduced.

Data set [12] deals with glutathione-glutaredoxin (GSH-Grx) system. The experiment in a line: Glutaredoxin/glutathione assay (NADPH consumption). The format is biochemical. Conditions: 1 mM GSH, 200 μM NADPH, yeast GR, 1 μM hGrx1 when required, 45 min. Here is the method: The assay was performed as previously described, with minor modifications and adapted for a 96-well plate. A mixture of 0.1 M Tris pH 8, 2 mM EDTA pH = 8, 0.1 mg/mL BSA, 1 mM GSH, 200 μM NADPH, and 0.008 OD/mL yeast GR was prepared (all reagents were purchased from Sigma-Aldrich). Reactions were performed with 1 μM hGrx1 (IMCO Corporation, Stockholm, Sweden) when corresponding and different concentrations of the compounds. A 100 μL mixture was added, and the final volume was adjusted to 110 μL per well. Consumption of NADPH was monitored at A340 on a VersaMax microplate reader (Molecular Devices) for 45 min.
as §4

Setting [13] is: MTT, read-out: LC50 (the source's name).
[14] abbreviates: read-out: LC50 (the source's name).

For orientation: GI50 means the concentration giving 50% growth inhibition. Read a low GI50 as more potent growth inhibition. As usually defined, the TGI is the concentration giving total growth inhibition. As for `C[Se]C(=O)c1cnccn1` [Compound 3, Methyl pyrazinecarboselenoate], the “CH3SeH release at 24 h” value in data set [1] is “completely released”. Further, the CC50 in [2] (72 h, read-out: LC50) was 60.5 ± 4.3 µM; in data set [3] (Homo sapiens, read-out: LC50), 40.1 ± 4.4 µM; in data set [6] (Homo sapiens, K562, 72 h, read-out: LC50) it was 87.9 ± 2 µM; in data set [7] (Homo sapiens, read-out: LC50), over 100 µM; in data set [8] (read-out: LC50), 71.1 ± 3.8 µM. Moreover, the GI50 in data set [2] (PC-3, 72 h, MTT) worked out at 5.4 ± 1.1 µM; in data set [3] (Homo sapiens, MTT) it was 3.5 ± 0.8 µM; in data set [5] (Homo sapiens), 3.1 ± 0.5 µM; in data set [6] (Homo sapiens, K562, K-562, 72 h, MTT) it was 30.2 ± 2.2 µM; in [7] (Homo sapiens, MTT), 4.7 ± 0.6 µM; in data set [8] (MTT), 6.2 ± 1.5 µM. Moreover, the concentration for 50% growth inhibition (GI50) in data set [10] (Homo sapiens) was 3.6 ± 0.6 µM. The total growth inhibition concentration (TGI) turned out to be 15.3 ± 1.7 µM in data set [2] (PC-3, 72 h, MTT); 7.2 ± 1.0 µM in data set [3] (MTT); 6.6 ± 0.9 µM in data set [5]; 59.1 ± 2.1 µM in [6] (K-562, 72 h, MTT); 9.1 ± 0.8 µM in data set [7] (MTT); 21.1 ± 4.1 µM in [8] (MTT). The same compound yielded a TGI in data set [10] of 6.1 ± 0.5 µM. Also, the CC50 at 72 h was 17.6 ± 4.4 µM in data set [4] and 8.6 ± 0.5 µM in [9].
In the case of `C[Se](=O)O` [MSA, Methylseleninic acid, reference compound], the GI50 in data set [2] (PC-3, 72 h, MTT) came to 4.4 ± 1.1 µM; in [3] (MTT), 1.5 ± 0.5 µM; in data set [5] it was 5.3 ± 1.2 µM; in data set [8] (MTT), 3.5 ± 0.1 µM; in [10] it was 3.7 ± 0.7 µM. Moreover, the TGI in data set [2] (PC-3, 72 h, MTT) came out at 8.5 ± 2.4 µM; in data set [3] (MTT) it was 5.4 ± 0.5 µM; in data set [5], 9.2 ± 1.3 µM; in data set [8] (MTT) it was 6.9 ± 0.2 µM; in data set [10], 6.2 ± 1.2 µM. The CC50 is 47.6 ± 4.6 µM in data set [2] (PC-3, 72 h, MTT, read-out: LC50 (the source's name)); 9.4 ± 1 µM in data set [3] (setting [13]); 13.1 ± 1.3 µM in data set [5] (setting [14]); 19.9 ± 1.2 µM in data set [8] (setting [13]); 8.7 ± 1.8 µM in [10] (setting [14]). The “reduction by TrxR1 (NADPH consumption)” value in [11] was “consistently reduced”. Besides, in data set [12], the “reduction by GSH in the presence or absence of glutaredoxin (NADPH consumption)” value is “consistently reduced”.
